Earlier results, collected in US20030229057A1, “Continuous sulfatase inhibiting progestogen hormone replacement therapy” (priority 2002, published 2003).

Conditions: humans

norgestimate being converted to norelgestromin in vivo: ≥ 80%
SMILES: C#C[C@]1(OC(C)=O)CC[C@H]2[C@@H]3CCC4=CC(=NO)CC[C@@H]4[C@H]3CC[C@@]21CC (mixture of isomers) [norgestimate]
